Values of other authors, collected in the CATMoS acute toxicity set (Mansouri et al. 2021).
Where “and” joins values, the source holds several entries; their conditions need not be identical. Equal values may be shown once.

Assay: rat acute oral toxicity
Conditions: in vivo

Structure (SMILES)	LD50
COc1cc(C=CC(=O)N2CCN(CC(=O)N3CCCC3)CC2)cc(OC)c1OC	1310 mg/kg
COc1ccc(OCC(=O)N[C@@H]2C(=O)N3[C@@H]2SC(C)(C)[C@@H]3C(=O)O)cc1F	7000 mg/kg
CC(C)c1cccc(OC(=O)N(C)N=O)c1	400 mg/kg
COC(=O)COc1ccc2ccccc2c1	2800 mg/kg
Cc1ccc(SP(=S)(CCl)OC(C)C)cc1 (stereo unspecified)	204 mg/kg
CCCCCCCCCCCCCCCN	660 mg/kg
CC(C)(C)c1ccc(OP2OCC3(CO2)COP(Oc2ccc(C(C)(C)C)cc2C(C)(C)C)OC3)c(C(C)(C)C)c1 (stereo unspecified)	5580 mg/kg
CCOC(=O)c1ccc(OC(=O)CCCCCNC(=N)N)cc1	6480 mg/kg
COc1ccc2c(c1)c(CC(=O)Oc1ccccc1C(=O)O)c(C)n2C(=O)c1ccc(Cl)cc1	59.5 mg/kg
O=[N+]([O-])c1ccc(OP(=O)(OCCCCl)OCCCCl)cc1	33 mg/kg
Brc1cnc[nH]1	250 mg/kg
Cc1cccc(C)c1N(CCCC(=O)O)C(=O)c1ccc(Cl)cc1	1900 mg/kg
CC(C)NCC(O)c1ccccc1Cl (stereo unspecified)	450 mg/kg and 445 mg/kg
O=C(O)c1nn(Cc2ccc(Cl)cc2Cl)c2ccccc12	1700 mg/kg
CC(C)COC(=O)C(C)C	12800 mg/kg
CC(C)(C)c1cc(Cl)cc(Sc2cc(Cl)cc(C(C)(C)C)c2O)c1O	6100 mg/kg
CCCCc1c(C)nc(NCC)nc1O	4000 mg/kg
O=[N+]([O-])C(Br)Br	86 mg/kg
CCCCCCCCCCCC=O	23000 mg/kg
C=CCC1=C(C)[C@@H](OC(=O)[C@@H]2[C@@H](C=C(C)C)C2(C)C)CC1=O	430 mg/kg
COC(=O)c1ccccc1C(=O)c1ccc(OCCN2CCCCC2)cc1	3600 mg/kg
N#CC(Cl)(Cl)C#N	130 mg/kg
CCOP(=S)(OCC)SCn1c(=O)oc2ccccc21	81 mg/kg
c1cc(CC2CO2)cc(CC2CO2)c1 (stereo unspecified)	4190 mg/kg
CCN(CC)CC#CC(C)(C)OC(=O)C(O)(c1ccccc1)C1CCCCC1 (stereo unspecified)	735 mg/kg

Structure (SMILES)	LD50
ClCc1ccccc1CCl	2260 mg/kg
Cc1cc(C)c(C(=O)Cl)c(C)c1	2300 mg/kg
CCN(CC)C(=O)c1cc(=O)c2ccccc2o1	4000 mg/kg
O=C(O)C(Cl)Cl	5280 mg/kg and 2820 mg/kg
Cc1c(O)cccc1O	200 mg/kg
OCC(O)CCl (stereo unspecified)	26 mg/kg
CS(=O)(=O)c1ccc2nc(C(F)(F)F)[nH]c2c1	69 mg/kg
O=C(O)c1cc(O)nc(O)n1	10900 mg/kg
OC(CCl)CN1CCCN(CC(O)CCl)c2ccccc21 (stereo unspecified)	750 mg/kg
O=C(O)c1ccccc1Cl	1140 mg/kg
N#CC=CCCC#N	380 mg/kg
Cc1cc(-n2c(C)nc3ccccc3c2=O)cc(C)c1O	230 mg/kg
O=C1CCc2cc(C(=O)CCCN3CCN(c4ccccc4Cl)CC3)ccc2N1	500 mg/kg
CC(C)/N=c1/cc2n(-c3ccc(Cl)cc3)c3ccccc3nc-2cc1Nc1ccc(Cl)cc1	8400 mg/kg
CCOP(=O)(OC=CCl)OCC	7 mg/kg
CCCCC(C)(C)CO	2200 mg/kg
O=C(c1cc2ccccc2o1)N1CCN(Cc2ccccc2)CC1	2530 mg/kg
Oc1cc2c3c(c1)c1cc4c(cc1c[n+]3CC2)OCO4	90 mg/kg
CCCN(CCC)C(=O)C(CCC(=O)N1CCN(CCOC(=O)Cc2c(C)n(C(=O)c3ccc(Cl)cc3)c3ccc(OC)cc23)CC1)NC(=O)c1ccccc1 (stereo unspecified)	315 mg/kg
CCOP(=S)(OCC)SC(C#N)c1ccccc1 (stereo unspecified)	100 mg/kg
CO[Si](CCCNCCC[Si](OC)(OC)OC)(OC)OC	3780 mg/kg
CCOP(=S)(OCC)ON1C(=O)c2cccc3cccc(c23)C1=O	500 mg/kg
CCCCCCCCCCCCOC(=O)CS(=O)(=O)O	700 mg/kg
CN1CCC(n2[nH]c(-c3ccccc3)c(Cc3ccccc3)c2=O)CC1	2700 mg/kg
CC(Cl)(Cl)CCl	1140 mg/kg

Structure (SMILES)	LD50
O=C(O)c1c(Cl)c(Cl)c(Cl)c(Cl)c1C(O)=Nc1cccc(Cl)c1Cl	2340 mg/kg
CCCCCCCC[N+](C)(CCCCCCCC)CCCCCCCC	223 mg/kg
CCC(C)c1ccccc1OC(N)=O (stereo unspecified)	410 mg/kg
CCOCC(=O)Nc1ccc(C(=O)c2ccccc2)cc1C	2280 mg/kg
O=C1c2ccccc2C(=O)C1c1ccc(Cl)cc1	290 mg/kg
COc1ccc(-c2ccccc2)cc1CN1CCCC1	28 mg/kg
BrC(Br)C(Br)Br	1200 mg/kg
O=C(OCc1ccccc1)c1ccccc1O	2230 mg/kg
C=CC(C)CCCC(C)(C)O (stereo unspecified)	3600 mg/kg
CCCC[P+](CCCC)(CCCC)Cc1ccc(Cl)cc1Cl	178 mg/kg
COc1ccc2c3c1OC1C(O)CCC4C(C2)N(C)CCC341 (stereo unspecified)	359 mg/kg
CC(C)CCO	1300 mg/kg
O=NN1CCCCCCC1	283 mg/kg
CC(=O)[C@]1(O)Cc2c(O)c3c(c(O)c2[C@@H](O[C@H]2C[C@H](N)[C@H](O)[C@H](C)O2)C1)C(=O)c1ccccc1C3=O	5.43 mg/kg
CC(C)C(Br)C(=O)OC(C)C(Cl)(Cl)Cl (stereo unspecified)	1200 mg/kg
Clc1ccc(-c2cccc(Cl)c2Cl)c(Cl)c1	4250 mg/kg
CCCCCCCCc1ccc(C(=O)CCN2CCCCC2)cc1	417 mg/kg
CCCCc1c(OC(=O)c2cc(OC)c(OC)c(OC)c2)n(-c2ccccc2)n(-c2ccccc2)c1=O	3000 mg/kg
CC(C)OC(=O)c1c[n+](C)c2n(c1=O)C(C)CCC2 (stereo unspecified)	1200 mg/kg
CC(C)(S)[C@@H](N)C(=O)O	6170 mg/kg
Cc1occc1C(=O)Nc1ccccc1	12900 mg/kg
CCCCn1c(=O)n(CCC)c(=O)c2[nH]c(C)nc21	15 mg/kg
COC1=CC=C2[C@H]3Cc4ccc(OC)c5c4[C@@]2(CCN3C)[C@H]1O5	114 mg/kg
CSc1ccc2c(c1)N(CCCN(C)C)c1ccccc1S2	1450 mg/kg
O=C1NC(=O)C(=O)C(=O)N1	5210 mg/kg

Structure (SMILES)	LD50
Cc1ccc(S(=O)(=O)O)cc1	2570 mg/kg
COc1ccc2c(c1OC)C13CCN(C)C(C2)C1(O)CCC(O)C3 (stereo unspecified)	339 mg/kg
COC(=O)CCC(Cl)C(C)=O (stereo unspecified)	2050 mg/kg
CC(CC(=O)c1ccc(-c2ccc(F)cc2F)cc1)C(=O)O (stereo unspecified)	134 mg/kg
CCN(CC)CCc1nc(-c2ccccc2)no1	1650 mg/kg
COc1c2occc2c(OC)c2c(=O)cc(C)oc12	68.8 mg/kg
CCNc1cccc(C)c1	580 mg/kg
ClCc1c(Cl)cc(Cl)cc1Cl	3080 mg/kg
Clc1ccccc1CN1CCc2sccc2C1	1780 mg/kg
Fc1ccc(C(c2ccccc2)(c2ccccc2F)n2ccnc2)cc1 (stereo unspecified)	808 mg/kg
CC(C)(C)C(=O)OCOC(=O)[C@@H]1N2C(=O)[C@@H](N=CN3CCCCCC3)[C@H]2SC1(C)C	9500 mg/kg
O=S(=O)(c1ccccc1)c1ccccc1	300 mg/kg
O=NN1CCCCC1	200 mg/kg
C=CC(=O)N(CC)CC	1420 mg/kg
CCC(C)Nc1ccc(NC(C)CC)cc1 (stereo unspecified)	148 mg/kg
CCOCN(C(=O)CO)c1c(C)cccc1CC	2400 mg/kg
O=C(c1ccccc1)c1cccc(NS(=O)(=O)C(F)F)c1	750 mg/kg and 450 mg/kg
COCCNC(=O)CSP(=S)(OC)OC	420 mg/kg
Nc1ccc2c(c1)[nH]c1ccccc12	964 mg/kg
CCCCN1CCCN=C1C(OCC)c1ccccc1 (stereo unspecified)	220 mg/kg
CC(C)N1C(=O)N(c2ccccc2)CSC1=NC(C)(C)C	2200 mg/kg
O=C1OCCO1	10000 mg/kg
Nc1ccc(C(=O)O)c(O)c1	8000 mg/kg
O=[N+]([O-])c1cc(Br)c2nc(C(F)(F)F)[nH]c2c1	14.5 mg/kg
Cc1cc(C(=O)c2ccccc2)ccc1N=Cc1ccc(OCCC(C)C)cc1	1500 mg/kg

Structure (SMILES)	LD50
BrCc1cccc(Oc2ccccc2)c1	2330 mg/kg
CCOCCOCCOC(C)=O	11000 mg/kg
CCCOP(=O)(OC=C(Cl)Cl)OCCCl (stereo unspecified)	25 mg/kg
CC(C)=CCN(CC=C(C)C)CCC(C)(C(N)=O)c1cccc2ccccc12 (stereo unspecified)	353 mg/kg
Clc1nc(C(Cl)Cl)c(Cl)c(Cl)c1Cl	1780 mg/kg
Cc1cc(-c2ccccc2)n[nH]1	1800 mg/kg
Nc1nc2cc(Cl)c(Br)cc2o1	140 mg/kg
Cc1ccc2ccccc2c1N	620 mg/kg
CCCCCCCOCCO	2280 mg/kg
N#CCCNC(=O)CCl	410 mg/kg
CN1CCN(CCC(=O)NN=Cc2ccc([N+](=O)[O-])o2)CC1	300 mg/kg
CCOC(N)=O	1810 mg/kg
OC(CCl)CNc1ccccc1NCC(O)CCl (stereo unspecified)	900 mg/kg
OCCOCCOCCN1CCN(C(c2ccccc2)c2ccc(Cl)cc2)CC1 (stereo unspecified)	920 mg/kg
OCC1OC(N2CCN(C3OC(CO)C(O)C(O)C3O)CC2)C(O)C(O)C1O (stereo unspecified)	30000 mg/kg
O=S(=O)(Cl)c1ccc(Cl)cc1	4250 mg/kg
CCc1c(C)nc2ccc(Cl)cn2c1=O	1100 mg/kg
CCSCCSP(=S)(OC)OC	40 mg/kg
O=C(C(F)(F)F)C(F)(F)F	190 mg/kg and 191 mg/kg
Oc1ccc(Nc2ccccc2)cc1	3300 mg/kg
O=[N+]([O-])c1ccc(Nc2ccc(O)cc2)c([N+](=O)[O-])c1	15600 mg/kg
C[C@H](CN1CCCC1)C(=O)c1ccc(C(F)(F)F)cc1	525 mg/kg
CCCCCCCCCCCOC(=O)Cc1ccc(N(CCCl)CCCl)cc1	50 mg/kg
O=C(CF)NNc1ccccc1	9.1 mg/kg
C[C@@H]1CN(CCCn2c3ccccc3c3ccccc32)C[C@H](C)N1	907 mg/kg

Structure (SMILES)	LD50
CC(C)(C)C(=O)CC#N	283 mg/kg
O=C(CCCN1CCC2(CCCCC2)CC1)c1ccc(F)cc1	200 mg/kg
O=[N+]([O-])c1ccc2ccccc2c1	4400 mg/kg
CCCCC(CC)COC(=O)c1ccccc1C(=O)O (stereo unspecified)	1340 mg/kg
CS(=O)C(C)(C)CO (stereo unspecified)	11300 mg/kg
Cc1ccc(N=NN(C)C)cc1	395 mg/kg
CC(C)CCC(C)Nc1ccc(NC(C)CCC(C)C)cc1 (stereo unspecified)	750 mg/kg
COCCOC(=O)C=CC(=O)OCCOC	3340 mg/kg
CCCN(CCC)C(=O)C(Cc1ccc(OCCN(CC)CC)cc1)NC(=O)c1ccccc1 (stereo unspecified)	800 mg/kg and 1070 mg/kg
C/C=C/C=C/C(=O)O	7360 mg/kg and 4340 mg/kg and 7160 mg/kg
CCCCC[Si](OCC)(OCC)OCC	20000 mg/kg
C=CC(O)CC#N (stereo unspecified)	200 mg/kg
CN1CCN(C2=Nc3ccccc3Cc3ccccc32)CC1	660 mg/kg
CC=CCCCCCCCC(=O)OC	3000 mg/kg
CCOC(CC)(C1=NCC(C)(C)CN1)c1ccc(Cl)cc1 (stereo unspecified)	58 mg/kg
Cc1cccc(N2CCN(CCC(O)c3ccc4c(c3)CCC(=O)N4)CC2)c1C (stereo unspecified)	500 mg/kg
COc1cc2c(cc1OC)C1Cc3ccc(OC)c(OC)c3CN1CC2 (stereo unspecified)	580 mg/kg
CC(C)=CCO	810 mg/kg
COc1ccc(-c2oc3ccc(C(=O)O)cc3c(=O)c2OC(C)C)cc1	1480 mg/kg
O=C(O)c1c(Cl)c(Cl)c(Cl)c(Cl)c1C1c2cc(Br)c(O)c(Br)c2Oc2c1cc(Br)c(O)c2Br	8400 mg/kg
OCCN1CCN(CCCN2c3ccccc3Sc3cc(Cl)cnc32)CC1	657 mg/kg
